{"source": "patent US7863453B2", "about": "“Tartrate salt of isofagomine and methods of use” (Amicus Therapeutics, Inc., priority 2006, dated 2011)", "key": {"[1]": {"assay": "Moisture uptake studies (saturated salt solutions)", "assay_type": "physicochemical", "details": "for Weight gain (%): single samples; for Average weight gain (%): average of 3 samples", "from_the_text": "The moisture uptake test results of six different isofagomine tartrate samples prepared according to present invention are summarized in Tables 4 and 5."}, "[2]": {"assay": "Powder characteristics (density, flowability)", "assay_type": "physicochemical", "from_the_text": "Meanwhile, isofagomine tartrate according to the present invention has good powder characteristics, e.g., crystal size, density, and flowability, that are suitable for a pharmaceutical manufacturing process. Tables 2 and 3 summarize powder characteristics of an isofagomine tartrate sample prepared according to the present invention. […] Most batches provided more than 98%, or at minimum 90%, of isofagomine tartrate with a particle size of about 1200 μm or less."}, "mutant GCase": {"test_system": "mutant GCase", "assay": "Ex vivo response study, GCase levels in macrophages derived from Gaucher patients", "assay_type": "cell-based, human", "experimental": "The intracellular enhancement activity of isofagomine L-(+)-tartrate was investigated with fibroblasts established from Gaucher patients. To evaluate the effects of IFG on mutant GCase levels, an ex vivo response study with macrophages and EBV-transformed lymphoblasts derived from peripheral leukocytes of 40 patients was conducted.\nThe study included 21 males with type I Gaucher disease, 1 person with type III Gaucher disease, and 18 females with type I Gaucher disease. Patients ranged in age from 7 to 83 years, and 38 of 40 patients were on enzyme replacement therapy (ERT)."}, "[3]": {"assay": "Phase I clinical studies in healthy volunteers, safety", "assay_type": "in vivo, human", "experimental": "(§1) Isofagomine tartrate is a pharmacological chaperone in development for the treatment of the lysosomal storage disorder Gaucher disease. Using cell-based and animal models we have shown that isofagomine increases cellular levels of glucocerebrosidase (GCase), the enzyme deficient in Gaucher disease. Randomized double-blind Phase I clinical studies were performed in 72 healthy volunteers, (39 male, 33 female). Isofagomine tartrate was orally administered as an aqueous solution. In a first-in-human single ascending dose study, doses of 8, 25, 75, 150 (two cohorts), and 300 mg were administered (6 active, 2 placebo in each cohort). In a multiple ascending dose study, doses of 25, 75, and 225 mg were administered daily for seven days (6 active, 2 placebo in each cohort)."}, "[4]": {"assay": "Phase I single ascending dose study, pharmacokinetics", "assay_type": "in vivo, human", "experimental": "as §1\n(§2) Mean plasma levels peaked at 3.4 hr. […] (SEM: 2 hr.)."}, "[5]": {"assay": "Phase I multiple ascending dose study, pharmacokinetics", "assay_type": "in vivo, human", "details": "after 7 days of oral administration", "experimental": "as §1, §2"}, "GCase": {"target": "T1, GCase (Homo sapiens, UniProt P04062)", "T1 construct": "endogenous in cells; host or cells: isolated white blood cells of healthy volunteers dosed orally", "T1 sequence (P04062 40-536)": "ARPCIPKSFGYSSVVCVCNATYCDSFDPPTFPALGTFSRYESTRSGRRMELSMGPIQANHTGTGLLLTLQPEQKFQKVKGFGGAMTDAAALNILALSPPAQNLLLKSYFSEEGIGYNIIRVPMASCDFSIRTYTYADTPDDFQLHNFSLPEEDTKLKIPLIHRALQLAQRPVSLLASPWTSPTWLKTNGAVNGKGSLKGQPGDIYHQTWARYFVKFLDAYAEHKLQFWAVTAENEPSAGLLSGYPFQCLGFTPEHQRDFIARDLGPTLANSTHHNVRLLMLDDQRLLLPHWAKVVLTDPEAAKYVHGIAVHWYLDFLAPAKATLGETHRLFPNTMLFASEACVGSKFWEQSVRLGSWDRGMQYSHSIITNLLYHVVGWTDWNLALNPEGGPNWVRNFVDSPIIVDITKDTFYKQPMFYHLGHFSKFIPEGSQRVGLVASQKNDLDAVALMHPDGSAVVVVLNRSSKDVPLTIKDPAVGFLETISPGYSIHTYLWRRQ", "assay": "Phase I multiple-dose study, GCase activity in isolated white blood cells", "assay_type": "in vivo", "experimental": "as §1\nIn the multiple-dose study, GCase activity in isolated white blood cells was measured at days 1, 3, 5 and 7 during administration of isofagomine tartrate, and at days 9, 14 and 21 during the post-treatment washout period. […] The increase in enzyme level was dose-related, reaching approximately 3.5-fold above baseline levels."}, "[6]": {"target": "T2, recombinant human acid β-glucosidase (GCase) (Homo sapiens, UniProt P04062)", "T2 sequence (P04062 40-536)": "T1 sequence (P04062 40-536)", "details": "background statement; cited from earlier work"}, "[7]": {"details": "animals, background statement; cited from earlier work"}}, "note": "Several values for one entry are separate records, joined by “and”; a condition that tells them apart may be missing. Identical values can stand only once. Counter-ions that a name gives are not always drawn. Like-named read-outs stand apart in the source and are kept apart here.", "data": [{"smiles": "OC[C@H]1CNC[C@@H](O)[C@@H]1O", "note": "[isofagomine tartrate, Isofagomine tartrate]", "values": [{"measurement": "hygroscopicity", "setting": "[1]", "value": "not hygroscopic"}, {"measurement": "Weight gain (%)", "setting": "[1]; NaBr saturated solution, 24 hours, RH 59%, 20.5 °C", "value": "0.06% and 0.00% and 0.05%"}, {"measurement": "Average weight gain (%)", "setting": "[1]; NaBr saturated solution, 24 hours, RH 59%", "value": 0.04, "unit": "%"}, {"measurement": "Weight gain (%)", "setting": "[1]; NaBr saturated solution, 48 hours, RH 59%, 20.8 °C", "value": "0.04% and 0.02% and 0.10%"}, {"measurement": "Average weight gain (%)", "setting": "[1]; NaBr saturated solution, 48 hours, RH 59%", "value": 0.05, "unit": "%"}, {"measurement": "Weight gain (%)", "setting": "[1]; NaBr saturated solution, 8 days, RH 59%, 20.2 °C", "value": "0.06% and 0.07% and 0.10%"}, {"measurement": "Average weight gain (%)", "setting": "[1]; NaBr saturated solution, 8 days, RH 59%", "value": 0.08, "unit": "%"}, {"measurement": "Weight gain (%)", "setting": "[1]; NaCl saturated solution, 24 hours, RH 72%, 20.5 °C", "value": "0.02% and 0.00% and 0.08%"}, {"measurement": "Average weight gain (%)", "setting": "[1]; NaCl saturated solution, 24 hours, RH 72%", "value": 0.04, "unit": "%"}, {"measurement": "Weight gain (%)", "setting": "[1]; NaCl saturated solution, 48 hours, RH 71%, 20.8 °C", "value": "0.05% and 0.00% and 0.8%"}, {"measurement": "Average weight gain (%)", "setting": "[1]; NaCl saturated solution, 48 hours, RH 71%", "value": 0.05, "unit": "%"}, {"measurement": "Weight gain (%)", "setting": "[1]; NaCl saturated solution, 8 days, RH 72%, 20.2 °C", "value": "0.10% and 0.00% and 0.15%"}, {"measurement": "Average weight gain (%)", "setting": "[1]; NaCl saturated solution, 8 days, RH 72%", "value": 0.08, "unit": "%"}, {"measurement": "moisture uptake", "setting": "[1]; after exposure to 75% RH for 8 days", "value": "about 0.08%"}, {"measurement": "Bulk Density", "setting": "[2]", "value": 0.44, "unit": "g/mL"}, {"measurement": "Carr Index", "setting": "[2]", "value": 15, "unit": "%"}, {"measurement": "Tap Density", "setting": "[2]", "value": 0.52, "unit": "g/mL"}, {"measurement": "Bulk Density", "setting": "[2]; listed as Isofagomine tartrate", "value": "around 0.44 g/ml"}, {"measurement": "Carr Index", "setting": "[2]; listed as Isofagomine tartrate", "value": 15, "unit": "%"}, {"measurement": "increase in GCase levels (average)", "setting": "mutant GCase; macrophages from Gaucher patients, 32 of 34 responding, treated 5 days, dose-dependent", "value": 2.8, "unit": "fold"}, {"measurement": "serious adverse events", "setting": "[3]; both studies", "value": "No serious adverse events occurred"}, {"measurement": "treatment-emergent adverse events", "setting": "[3]; both studies", "value": "mostly mild"}, {"measurement": "tolerability", "setting": "[3]; healthy volunteers, oral aqueous solution, single 8-300 mg and 25-225 mg daily for seven days", "value": "generally well tolerated at all doses"}, {"measurement": "Tmax", "setting": "[4]; both sexes, human, plasma, single-dose study, oral, SEM 0.6 hr, read-out: time at which mean plasma levels peaked (Tmax)", "value": 3.4, "unit": "h"}, {"measurement": "half-life", "setting": "[4]; both sexes, human, plasma, single-dose study, oral, SEM 2 hr, read-out: plasma elimination half-life (converted)", "value": 14, "unit": "h"}, {"measurement": "systemic exposure via the oral route", "setting": "[4]; healthy volunteers", "value": "good systemic exposure"}, {"measurement": "plasma AUC and Cmax versus dose", "setting": "[4]; single-dose study, 8-300 mg", "value": "linearly correlated with administered dose"}, {"measurement": "pharmacokinetic behavior versus dose", "setting": "[5]", "value": "linear with dose"}, {"measurement": "increase in GCase level above baseline", "setting": "GCase; isolated white blood cells, healthy volunteers, 25-225 mg daily for seven days, dose-related, maximum reached", "value": "approximately 3.5 fold"}, {"measurement": "GCase levels after removal of the drug", "setting": "GCase; post-treatment washout period", "value": "return to near baseline levels by day 21"}]}, {"smiles": "OC[C@H]1CNC[C@@H](O)[C@@H]1O", "note": "[isofagomine, (3R,4R,5R)-5-(hydroxymethyl)-3,4-piperidinediol]", "values": [{"measurement": "effect on GCase levels in cells from patients with different genotypes", "setting": "mutant GCase; N370S/N370S, N370S/L444P, N370S/84insG, N370S/R163X, N370S/Y212H, L444P/del 136T, L444P/F216Y, L444P/L174F, G202R/R463C, K79N/complex B exon 9/10", "value": "significantly increased GCase levels"}, {"measurement": "concentration at maximum enhancement of GCase", "setting": "mutant GCase; macrophages", "value": "about 30 μM"}, {"measurement": "accumulation", "setting": "[5]", "value": "no unexpected accumulation"}, {"measurement": "inhibition of GCase", "setting": "[6]", "value": "potent inhibitor"}, {"measurement": "blood-brain barrier crossing", "setting": "[7]", "value": "cross the blood-brain barrier"}]}]}
